From patent US20210214368A1, “COMPOUNDS FOR THIOL-TRIGGERED COS AND/OR H2S RELEASE AND METHODS OF MAKING AND USING THE SAME” (University of Oregon, priority 2018, published 2021)
Blank lines part the entries; values can stand above or below the compound they belong to.

Experiments:
[1] = Cys-triggered fluorescence turn on in PBS; conditions: compound 10 μM in PBS, no Cys
Experimental: Representative Measurement of Fluorescence Intensity of Compound Embodiments—A freshly prepared compound 202a stock solution (3.00 μL, 10.0 mM in DMSO) was added to 3.00 mL of PBS (Ph 7.40, 10.0 Mm) containing CA (25.0 μg/mL) in a quartz fluorescence cuvette. A Cys stock solution (10.0 mM) was then added to reach the desired working concentration. The reaction solution was excited at 490 nm and the fluorescence intensity (500-650 nm) was measured and recorded using a Quanta Master 40 spectrofluorometer.
In this example, it was determined that Cys-induced compound 202a activation can be monitored by tracking the fluorescein formation and accompanied fluorescence response, and, in some embodiments, the reaction proceeds more quickly when higher concentrations of thiols are added. Time-dependent fluorescence spectra (FIG. 2A) and UV-vis spectra (FIG. 2B) of a particular compound embodiment, compound 202a, (10 μM) in PBS buffer (pH 7.4, 10 mM) containing Cys (100 μM) and CA (25 μg/mL) were obtained using a fluorescence spectrometer. […] Fluorescein formation was also confirmed by UV-vis spectroscopy under the identical conditions (FIG. 2B). Specifically, a freshly prepared compound 202a stock solution (3.00 μL, 10.0 mM in DMSO) was added to 3.00 mL of PBS (pH 7.40, 10.0 mM) containing CA (25.0 μg/mL) in a quartz UV cuvette. A Cys stock solution (30.0 μL, 10.0 mM in H2O) was then added. The absorbance (350-600 nm) was measured for 3 hours using a Cary 100 spectrometer. A Cys-dependent fluorescence enhancement was observed when treating compound 202a (10 μM) with increasing concentrations of Cys (1-20 equiv.), indicating a high sensitivity of compound 202a towards Cys. […] In addition, to confirm the H2S delivery from compound 202a, compound 202a (10 μM) was treated with Cys (100 μM) in PBS containing CA (25 μg/mL) and quantified H2S release using the MB assay. […] Optical measurement conditions were as follows: […], and slit width=0.3 mm.

[2] = Selectivity of fluorescence turn on to cellular RSONs and thiols; conditions: 10 μM, PBS at physiological pH, 2 hours
Experimental: Representative Procedure for Evaluating Selectivity of Compound EmbodIments to Cellular RSONs—To 3.00 mL of PBS was added a stock solution of compound 202a (3.00 μL, 10.0 mM in DMSO), followed by the addition of RSON stock solution (30.0 μL, 10.0 mM in H2O). After 2 hours of incubation at room temperature, the solution was excited at 490 nm and the fluorescence intensity (500-650 nm) was measured and recorded by using a Quanta Master 40 spectrofluorometer. For the NEM-pretreated group, NEM (30.0 μL, 1.00 M) was added to PBS (3.00 mL) containing CA (25.0 μg/mL) and Cys (100 μM). The solution was then incubated for 1 hour before adding the compound 202a stock solution (3.00 μL, 10.0 mM in DMSO).
In this example, fluorescence turn on of compound 202a (10 μM) in the presence of cellular reactive sulfur, oxygen, and nitrogen species (RSONs) (100 μM) was evaluated. […] Compound 202a (10 μM) was incubated with GSH, homocysteine (Hcy), N-acetyl cysteine (NAC), penicillamine (PEN), or bovine serum albumin (BSA) (100 μM), in PBS buffer (pH 7.4, 10 mM) containing CA (25 μg/mL) and the fluorescent intensity was measured after 2 hours. […]
Compound 202a also (10 μM) was incubated with RSONs (100 μM), such as H2O2, ClO^−, O2^−, TBHP, Ser, Lys, Gly, GSSG, and GSNO, and COS/H2S release was monitored by tracking the fluorescein formation. […]

[3] = tested on: porcine liver esterase (PLE); assay: Esterase stability of the sulfenyl thiocarbonate group (fluorescence); type: in vitro ADME; conditions: compound 10 μM, PLE 1 U/mL, 2-hour incubation
Experimental: Compound 202a also (10 μM) was incubated with RSONs (100 μM), such as H2O2, ClO^−, O2^−, TBHP, Ser, Lys, Gly, GSSG, and GSNO, and COS/H2S release was monitored by tracking the fluorescein formation. […] Because the carbonate functional group may be sensitive to esterase-catalyzed hydrolysis, the esterase stability of the sulfenyl thiocarbonate group also was evaluated by incubating compound 202a (10 μM) with porcine liver esterase (PLE, 1 U/mL).

HeLa cells [4] = assay: Cytotoxicity in HeLa cells (CCK-8); type: cell-based; conditions: 6.25-50.0 μM, 30 minutes
Experimental: In this example, H2S delivery from compound 202a in HeLa cells was evaluated. To determine whether compound embodiments of the present disclosure can be activated to release COS/H2S in cellular environment, HeLa cells were treated with compound 202a under different conditions. HeLa cells were treated with compound 202a (50 μM) or compound 204 (50 μM) and H2S release was monitored using C7-Az, a H2S-responsive fluorescent probe. […] To confirm that compound 202a was not cytotoxic, confluent HeLa cells were incubated in FBS-free DMEM containing vehicle (0.5% DMSO), and compound 202a (6.25-50.0 μM) for 30 minutes in a 96-well plate. The culture media were then removed and 100 μL of FBS-free DMEM containing 10% CCK-8 solution was added to each well, and cells were incubated for 2 hours at 37° C. The absorbance at 450 nm was measured by using a microplate reader (see FIG. 8). The cell viability was measured and normalized to the vehicle group. The results are expressed as mean t SEM (n=6).

RAW 264.7 cells [5] = assay: Cytotoxicity in RAW 264.7 cells (CCK-8); type: cell-based; conditions: concentrations up to 25 μM, 2 hours
Experimental: In this example, cytoprotective activity of compound 202a against LPS-induced inflammation was evaluated. […] The compounds of the present disclosure were therefore evaluated to determine their anti-inflammatory activities due to H2S release. RAW 264.7 cells were incubated with compound 202a (0-25 μM) for 2 hours, followed by a 24-hour incubation with lipopolysaccharide (LPS, 0.5 μg/mL) to trigger the inflammatory response. The inflammation event usually results in the NO generation, which can be monitored by measuring nitrite (NO2—) accumulation. […] In particular, confluent RAW 264.7 cells were incubated in FBS-free DMEM containing vehicle (0.5% DMSO), compound 202a, BnSH, and compound 204 (10.0-100 μM) for 2 hours in a 96-well plate. The culture media were then removed and 100 μL of FBS-free DMEM containing 10% CCK-8 solution was added to each well, and cells were incubated for 2 hours at 37° C. The absorbance at 450 nm was measured by using a microplate reader (FIG. 9). The cell viability was measured and normalized to the vehicle group. The results are expressed as mean t SEM (n=6).

[6] = Thiol-triggered H2S release in PBS containing CA (MB assay); conditions: compound 50 μM
Experimental: To evaluate thiol effects on COS/H2S release from cyclic perthiocarbamate compound embodiments, compound 306a (50 μM) was incubated in PBS (pH 7.4, 10 mM) containing Cys or GSH (up to 4.0 mM) and CA (25 μg/mL) and H2S release was monitored by MB assay. […] Additionally, other thiol triggers, such as cysteine, homocysteine, and N-acetyl cysteine, were combined with compound 306a to evaluate if they would trigger the compound to release H2S.
In this example, GSH-triggered H2S release from compound 900 was evaluated. […] To improve the H2S releasing capacity of ATB-346, compound 900 was made by reacting ATB-346 with chlorocarbonyl sulfenyl chloride reagent (see Scheme 9). The resultant compound 900 was then added to PBS containing GSH and CA.
Release of H2S from compound 404c (25 μM) in the presence of L-cysteine or reduced glutathione (GSH) (500 μM, 20 equiv.) measured by the spectrophotometric methylene blue assay, with results shown in FIG. 17.
In this example, additional compounds, such as cyclic sulfenyl thiocarbamate compounds 306a-306e, were evaluated for their ability to release H2S upon exposure to a biological thiol, cysteine.
With the hybrid NSAID in hand, COS/H2S release in aqueous buffer was evaluated.

HeLa cells [7] = assay: Imaging of H2S delivery in HeLa cells with SF7-AM probe; type: cell-based; conditions: compound 50 μM 30 minutes, SF7-AM 5 μM
Experimental: In this example, H2S delivery from sulfenyl thiocarbamate compound 306a in HeLa cells was evaluated. HeLa cells were treated with Hoechst dye and SF7-AM (5 μM) in DMEM only for 5 minutes and then with DMEM only for 30 minutes (top row) or DMEM containing the compound (50 μM) for 30 minutes (bottom row). Cells were then washed with PBS and cell images were taken in PBS using a fluorescent microscope.

RAW 264.7 cells [8] = assay: Anti-inflammatory activity: LPS-induced NO2- accumulation (Griess); type: cell-based; conditions: pretreatment 25 μM for 2 hours, then LPS 0.500 μg/mL 24 hours
Experimental: Representative Procedure for Determining Anti-Inflammatory Activities of Compound Embodiments and Control Compounds—Macrophage RAW 264.7 cells were seeded in a 24-well plate (5×10^5 cells/well) containing 0.500 mL of DMEM and incubated at 37° C. under 5% CO2 for 24 hours. The confluent cells were washed with PBS and incubated with either compound 202a (0-25.0 μM), or GYY4137 (25.0 μM) at 37° C. for 2 hours. Compounds were then removed by washing cells with PBS and these pretreated cells were incubated in FBS-free DMEM containing LPS (0.500 μg/mL) for 24 hours. NO2— levels were measured by using a Griess Reagent Kit.

RAW 264.7 cells [9] = conditions: 100-1000 μM and 24-hour incubation; cited from earlier work

fluorescent signal in the absence of Cys (stability in aqueous buffer) [1]: No fluorescent signal was observed
stability in PBS in the absence of thiols [2]: stable
fluorescence with porcine liver esterase [3]: slight fluorescence turn on
Structure (SMILES): O=C(Oc1ccc2c(c1)Oc1cc(OC(=O)SSCc3ccccc3)ccc1C21OC(=O)c2ccccc21)SSCc1ccccc1 [Compound 202a]
cytotoxicity in HeLa cells (HeLa cells [4]): not cytotoxic
cytotoxicity in RAW 264.7 cells (RAW 264.7 cells [5]): did not induce cytotoxicity

H2S release in the absence of thiol trigger ([6]; PBS, no thiol): Negligible H2S release was observed
Structure (SMILES): O=c1nc(-c2ccccc2)ss1 [Compound 306a]
GSH-dependent H2S release ([6]; GSH up to 4.0 mM, CA 25 μg/mL, PBS pH 7.4): GSH-dependent H2S release was observed
H2S release in the presence of thiols GSH, Cys, Hcy, and NAC ([6]; PBS, CA): H2S release was observed
H2S release with GSSG, Lys, Ser, Gly, S2O3^2−, SO3^2−, SO4^2− ([6]; PBS, CA): did not activate the compound and minimal H2S release was observed
H2S release with penicillamine ([6]; PBS, CA): minimal H2S release
SF7-AM (H2S probe) fluorescence in HeLa cells (HeLa cells [7]): strong SF7-AM fluorescent signal

Structure (SMILES): C1COCCN1.COc1ccc(P(=S)(S)N2CCOCC2)cc1 (stereo not shown) [GYY4137]
anti-inflammatory activity at 25 μM (NO2− production) (RAW 264.7 cells [8]): such cytoprotection was not observed
anti-inflammatory effects at higher concentration and longer incubation (RAW 264.7 cells [9]): anti-inflammatory effects
